The values that follow come from US5656603A (Loyola University of Chicago, priority 1995, dated 1997).

Where two headings read alike, the source gives them in different places.

One assay deals with T1, endopeptidase 24.15 (Rattus norvegicus, UniProt P24155).
T1 construct: endopeptidase 24.15 (EC 3.4.24.15) (rat brain synaptosomes); from tissue; host or cells: rat brain synaptosomes
Kind of assay: Specificity of apstatin: endopeptidase 24.15. It counts as biochemical. Conditions: rat brain synaptosomes; Bk(2-9), pH 6.8, HPLC-1. Here is the method: (§1) Specificity of Apstatin--Apstatin was assayed for its ability to inhibit several other peptidases. […] Unless otherwise indicated, the source of each enzyme activity was a detergent extract of bovine lung prepared as described in (12-13). Activities were determined by a modification of the fluorescent assay described above (indicated by "FLUO") or by HPLC separation and quantitation of reaction products using the method described in (12) (method "HPLC-1") or the method described below (method "HPLC-2"). […]

In assay [1] the target is dipeptidyl-peptidase I-like activity. The experiment in a line: Specificity of apstatin: dipeptidyl-peptidase I-like activity. Conditions: detergent extract of bovine lung; Gly-Phe-β-NA, pH 6.5, HPLC-2. It counts as biochemical. On the procedure:
as §1

Another assay concerns the target T2, prolidase (Sus scrofa, UniProt A0A5G2QQV1).
T2 construct: Purified porcine kidney prolidase and purified porcine kidney aminopeptidase M was obtained from Sigma; purchased Sigma (St. Louis, Mo.); host or cells: porcine kidney
T2 sequence (A0A5G2QQV1 1-463): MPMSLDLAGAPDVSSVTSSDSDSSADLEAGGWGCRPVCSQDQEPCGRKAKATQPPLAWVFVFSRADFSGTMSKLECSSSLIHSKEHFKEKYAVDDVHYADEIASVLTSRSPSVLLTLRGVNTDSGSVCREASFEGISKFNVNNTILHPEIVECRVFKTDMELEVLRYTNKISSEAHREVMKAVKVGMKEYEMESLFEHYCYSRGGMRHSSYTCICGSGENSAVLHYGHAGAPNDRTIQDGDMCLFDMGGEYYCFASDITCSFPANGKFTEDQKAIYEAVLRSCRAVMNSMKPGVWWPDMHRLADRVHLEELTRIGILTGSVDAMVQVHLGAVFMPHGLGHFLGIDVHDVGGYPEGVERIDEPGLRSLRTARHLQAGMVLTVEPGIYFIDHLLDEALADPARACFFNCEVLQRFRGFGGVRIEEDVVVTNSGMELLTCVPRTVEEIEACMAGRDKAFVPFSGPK
The experiment in a line: Specificity of apstatin: prolidase. It counts as biochemical. Conditions: purified, porcine kidney; Arg-Pro, pH 8.0, HPLC-2.
Source text: Enzymes--Membrane-bound aminopeptidase P was purified to homogeneity from bovine lung (14) and from rat lung. Partially purified membrane-bound aminopeptidase P from human lung was obtained by treatment of lung microsomes with phosphatidylinositol-specific phospholipase C (B. thuringiensis) (ICN, Costa Mesa, Calif.) followed by centrifugation as described previously (14). Membrane dipeptidase was purified from rat lung microsomes (manuscript in preparation). Recombinant E. coli aminopeptidase P (22) and purified lamb kidney prolyl oligopeptidase (23) were generally supplied by Dr. Tadashi Yoshimoto (Nagasaki University). Purified porcine kidney prolidase and purified porcine kidney aminopeptidase M was obtained from Sigma (St. Louis, Mo.).
as §1

Assay [2] deals with blood pressure response to Bk. The conditions noted are these: rat, cited from earlier work.

T1 sequence (P24155 whole entry): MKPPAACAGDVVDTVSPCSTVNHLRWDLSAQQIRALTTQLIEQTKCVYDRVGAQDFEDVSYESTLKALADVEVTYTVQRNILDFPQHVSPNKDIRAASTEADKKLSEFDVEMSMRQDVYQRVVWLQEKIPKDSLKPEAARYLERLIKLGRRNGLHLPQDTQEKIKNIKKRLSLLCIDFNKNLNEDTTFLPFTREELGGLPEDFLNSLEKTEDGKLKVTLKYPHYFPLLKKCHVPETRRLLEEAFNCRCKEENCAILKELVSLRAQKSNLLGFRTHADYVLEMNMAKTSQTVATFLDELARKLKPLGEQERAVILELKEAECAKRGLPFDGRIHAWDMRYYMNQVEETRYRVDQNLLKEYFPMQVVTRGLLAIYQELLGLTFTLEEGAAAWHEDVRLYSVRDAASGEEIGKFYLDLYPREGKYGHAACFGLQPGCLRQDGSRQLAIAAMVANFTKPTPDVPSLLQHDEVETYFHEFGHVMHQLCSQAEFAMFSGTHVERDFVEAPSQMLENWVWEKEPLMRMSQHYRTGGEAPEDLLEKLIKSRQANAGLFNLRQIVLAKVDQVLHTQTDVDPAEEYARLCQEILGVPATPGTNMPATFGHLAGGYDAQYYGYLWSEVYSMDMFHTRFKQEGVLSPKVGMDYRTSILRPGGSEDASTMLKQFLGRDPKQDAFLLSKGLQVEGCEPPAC

A word on the IC50: it is the concentration that gives 50% inhibition. `C[C@H](NC(=O)[C@@H]1CCCN1C(=O)[C@@H]1CCCN1C(=O)[C@@H](O)[C@H](N)Cc1ccccc1)C(N)=O` [apstatin, N-[(2S, 3R)-3-amino-2-hydroxy-4-phenylbutanoyl]-L-prolyl-L-prolyl-Lalaninamide]: the IC50 against endopeptidase 24.15 is > 800 µM; in assay [1] it was > 800 µM; at prolidase, 4.9 µM. The “effect on blood pressure decrease caused by intravenous administration of Bk” value in assay [2] (apstatin alone) is given as “significantly potentiate the magnitude as well as the duration”; in assay [2] (apstatin plus lisinopril versus lisinopril alone), “more effective in this regard than lisinopril alone”.
